The series is described as follows: logP determination (acidic / neutral). Type of series: physicochemical.
Setting [1] is: pH 2.3, read-out: log P (pH 2.3).

These results are taken from patent US9199922B2, “Dihalophenoxyphenylamidines and use thereof as fungicides” (BAYER INTELLECTUAL PROPERTY GMBH, priority 2007, dated 2015).

Where two headings read alike, the source gives them in different places.

Take `Cc1cc(Oc2ccc(Cl)c(Cl)c2)c(C)cc1N` [4-(3,4-Dichlorophenoxy)-2,5-dimethylaniline]: under setting [1], the logP came to 3.51.

`Cc1cc([N+](=O)[O-])c(C)cc1Oc1ccc(Cl)c(Cl)c1` [4-(3,4-Dichlorophenoxy)-2,5-dimethylnitrobenzene]: the “log P (pH 2.3)” value (pH 2.3) was determined as 5.19.

`CCN(C)C=Nc1cc(C)c(Oc2ccc(F)c(F)c2)cc1C` [Compound 2] had a logP acidic of 2.37. The compound also registered a logP neutral (neutral) of 6.2.

On to `CCN(C)C=Nc1cc(C)c(Oc2cc(F)cc(Br)c2)cc1C` [Compound 3], for which the logP acidic is 2.29. This compound registered a logP neutral (neutral) of 5.8.

`CCN(C)C=Nc1cc(C)c(Oc2cc(Br)cc(Br)c2)cc1C` [Compound 4] gave a logP acidic of 2.5. This compound had a logP neutral (neutral) of 6.

Turning to `Cc1cc(Oc2cc(Br)cc(Br)c2)c(C)cc1N=CN(C)C(C)C` [Compound 5], the logP acidic turned out to be 2.62. The compound further gave a logP neutral (neutral) of 6.4.

Consider `CCN(C)C=Nc1cc(C)c(Oc2cc(Cl)cc(Br)c2)cc1C` [Compound 6], for which the logP acidic is on record as 2.56. Also, the logP neutral (neutral) amounted to 6.4.

For `Cc1cc(Oc2cc(Cl)cc(Br)c2)c(C)cc1N=CN(C)C(C)C` [Compound 7], the logP acidic stood at 2.7. This compound showed a logP neutral (neutral) of 6.8.

In the case of `CCN(C)C=Nc1cc(C)c(Oc2cc(F)cc(Cl)c2)cc1C` [Compound 8], the logP acidic came out at 2.21. Where the note is “neutral”, the logP neutral worked out at 5.6.

`Cc1cc(Oc2cc(F)cc(Cl)c2)c(C)cc1N=CN1CCCCC1` [Compound 9] registered a logP acidic of 2.42. The compound also returned a logP neutral (neutral) of 6.3.

`Cc1cc(Oc2cc(F)cc(Cl)c2)c(C)cc1N=CN1CCCC1` [Compound 10] gave a logP acidic of 2.26. Under “neutral”, this compound returned a logP neutral of 5.6.

In turn, `CCCN(C)C=Nc1cc(C)c(Oc2cc(F)cc(Cl)c2)cc1C` [Compound 11] showed a logP acidic of 2.39. In addition, under “neutral”, the logP neutral is given as 6.1.

Compound `Cc1cc(Oc2cc(F)cc(Br)c2)c(C)cc1N=CN1CCCCC1` [Compound 12] registered a logP acidic of 2.55. Moreover, for the setting “neutral”, the logP neutral is reported as 6.5.

In the case of `CCN(C)C=Nc1cc(C)c(Oc2ccc3c(c2)CCCC3)cc1C` [Compound 13], the logP acidic is listed as 2.37. The same compound yielded a logP neutral (neutral) of 5.7.

For the compound `CCCN(C)C=Nc1cc(C)c(Oc2cc(F)cc(Br)c2)cc1C` [Compound 14], the logP acidic amounted to 2.37. The compound also returned a logP neutral (neutral) of 7.4.

Compound `CCN(C)C=Nc1cc(C)c(Oc2ccc(Cl)c(Br)c2)cc1C` [Compound 15] displayed a logP acidic of 2.23. Besides, for the setting “neutral”, the logP neutral was 6.1.

Regarding `Cc1cc(Oc2ccc(Cl)c(Br)c2)c(C)cc1N=CN1CCCCC1` [Compound 16], the logP acidic was 2.66. Further, the logP neutral (neutral) stood at 6.9.

On to `CCCN(C)C=Nc1cc(C)c(Oc2ccc(Cl)c(Br)c2)cc1C` [Compound 17], for which the logP acidic is given as 2.64. Where the note is “neutral”, the logP neutral is reported as 6.6.

For `Cc1cc(Oc2ccc(Cl)c(Br)c2)c(C)cc1N=CN1CCCC1` [Compound 18], the logP acidic worked out at 2.56. Further, the logP neutral (neutral) worked out at 6.6.

`CCN(C)C=Nc1cc(C)c(Oc2cc(F)cc(I)c2)cc1C` [Compound 19] displayed a logP acidic of 2.4.

`CCCN(C)C=Nc1cc(C)c(Oc2cc(F)cc(I)c2)cc1C` [Compound 20] displayed a logP acidic of 2.61. Also, where the note is “neutral”, the logP neutral was determined as 6.6.

As to `Cc1cc(Oc2cc(F)cc(I)c2)c(C)cc1N=CN1CCCCC1` [Compound 21], the logP acidic is recorded as 2.6. This compound showed a logP neutral (neutral) of 6.8.

As to `Cc1cc(Oc2cc(F)cc(I)c2)c(C)cc1N=CN1CCCC1` [Compound 22], the logP acidic was 2.46. This compound showed a logP neutral (neutral) of 6.6.

As to `CCN(C)C=Nc1cc(C)c(Oc2ccc(F)c(Br)c2)cc1C` [Compound 23], the logP acidic is reported as 2.29. Also, the logP neutral (neutral) is 5.7.

`Cc1cc(Oc2ccc(Cl)c(I)c2)c(C)cc1N=CN(C)C(C)C` [Compound 24] gave a logP acidic of 2.4. Where the note is “neutral”, this compound came in with a logP neutral of 6.2.

On to `CCN(C)C=Nc1cc(C)c(Oc2ccc(Cl)c(I)c2)cc1C` [Compound 25], for which the logP acidic turned out to be 2.29.

Regarding `Cc1cc(Oc2ccc(Cl)c(I)c2)c(C)cc1N=CN1CCCCC1` [Compound 26], the logP acidic turned out to be 2.52.

Compound `CCN(C)C=Nc1cc(C)c(Oc2ccc(Br)c(I)c2)cc1C` [Compound 27] came in with a logP acidic of 2.67. Besides, the logP neutral (neutral) is on record as 6.1.

On to `CCCN(C)C=Nc1cc(C)c(Oc2cc(F)cc(Br)c2)cc1C` [Compound 28], for which the logP acidic was found to be 2.91. This compound also returned a logP neutral (neutral) of 6.9.

`Cc1cc(Oc2cc(F)cc(Br)c2)c(C)cc1N=CN1CC(C)OC(C)C1` (stereo not shown) [Compound 29] came in with a logP acidic of 2.59. The compound also registered a logP neutral (neutral) of 5.8.

For `CCN(C)C=Nc1cc(C)c(Oc2ccc(Cl)c(Cl)c2)cc1C` [Compound 30, N-Ethyl-N-methyl-N′-[4-(3,4-dichlorophenoxy)-2,5-dimethylphenyl]formamidine], the logP (neutral, read-out: logP neutral) was 6.07 and the logP under setting [1] stood at 2.48.

With `Cc1cc(Oc2ccc(Br)c(F)c2)c(C)cc1N=CN1CCCCC1` [Compound 31], the logP acidic is 2.39.

`CCN(C)C=Nc1cc(C)c(Oc2ccc(Br)c(F)c2)cc1C` [Compound 32]: the logP acidic is 2.2.

Take `CCCN(C)C=Nc1cc(C)c(Oc2cc(F)cc(F)c2)cc1C` [Compound 33]: the logP acidic worked out at 2.04. The same compound returned a logP neutral (neutral) of 5.54.

The compound `Cc1cc(Oc2cc(F)cc(F)c2)c(C)cc1N=CN1CCCCC1` [Compound 35] returned a logP acidic of 2.03. For the setting “neutral”, this compound had a logP neutral of 5.79.

Take `C=CCN(C)C=Nc1cc(C)c(Oc2ccc(Br)c(Br)c2)cc1C` [Compound 37]: the logP acidic is given as 2.24. The logP neutral (neutral) is given as 6.3.

The compound `CCCN(C)C=Nc1cc(C)c(Oc2ccc(Br)c(Br)c2)cc1C` [Compound 38] registered a logP acidic of 2.45. The logP neutral (neutral) is reported as 6.62.

In turn, `Cc1cc(Oc2ccc(Br)c(Br)c2)c(C)cc1N=CN1CCCCC1` [Compound 39] displayed a logP acidic of 2.48. For the setting “neutral”, this compound came in with a logP neutral of 6.93.

Compound `Cc1cc(Oc2cc(F)cc(Br)c2)c(C)cc1N=CN(C)CC1CC1` [Compound 40] returned a logP acidic of 2.25.
